Entries after “also recorded” stand apart in the source; their conditions may differ. No end group written: not given here. *: point of attachment. Myristyl = CCCCCCCCCCCCCC*
What was measured:
Assay type in all cases: cell-based
[1] = target: T1, complex of PDL1-PTM1 and IMPα1 (Mus musculus, UniProt P52293); assay: DUOLINK proximity assay PDL1-PTM1 and IMPα1, CT26
T1 construct: endogenous in cells; host or cells: CT26
Description: (§1) (A) CT26, 4T1 or MDA-MB-231 Cells were treated with inhibitors for 72 hours. Following inhibition, media was removed and replaced with WST-1 cell proliferation reagent. Absorbance was recorded at 450 nm after 1 hour. Data represent a single independent experiment performed in triplicate. Results are graphed as mean +/− standard error (SE). B) MDA-MB-231 or CT26 cancer cells were treated with vehicle control, DL-2-Batch 1 (original stock), DL-2-Batch 2 (current stock), DL-2-TBAB or linear PDL1. Cells were permeabilised and were probed with the DUOLINK ligation assay. Cover slips were mounted on glass microscope slides with ProLong nucblue glass Antifade reagent (Life Technologies). PDL1Ac and IMPα1 DUOLINK Digital images were analysed using ImageJ software (ImageJ, NIH, Bethesda, MD, USA) and graphs represent the mean DOT Fluorescent Intensity in the nucleus or the cytoplasm compartments with significant differences calculated as per one-way ANOVA comparison. […] PDL1-unmodified and IMPα1 DUOLINK digital images were analysed using ImageJ software (ImageJ, NIH, Bethesda, MD, USA) and graphs represent the mean DOT fluorescent intensity in the nucleus or the cytoplasm compartments with significant differences calculated as per one-way ANOVA comparison. […]

[2] = target: T2, complex of PDL1 (unmodified) and IMPα1 (Mus musculus, UniProt P52293); assay: DUOLINK proximity assay PDL1 (unmodified) and IMPα1, CT26
T2 construct: endogenous in cells; host or cells: CT26
Description: (§2) To characterize unmodified PDL1 and IMPα1, MDA-MB-231 cells or CT26 cells were treated with vehicle control, DL-2-batch 1, DL-2-batch 2 or linear PDL1. Cells were permeabilised and were probed with the DUOLINK ligation assay. Cover slips were mounted on glass microscope slides with ProLong nucblue glass Antifade reagent (Life Technologies). PDL1 (unmodified) and IMPα1 DUOLINK Digital images were analysed using ImageJ software (ImageJ, NIH, Bethesda, MD, USA) and graphs represent the mean DOT Fluorescent Intensity in the nucleus or the cytoplasm compartments with significant differences calculated as per One-Way ANOVA comparison.
(A) CT26, 4T1 or MDA-MB-231 Cells were treated with inhibitors for 72 hours. […] Absorbance was recorded at 450 nm after 1 hour. […] PDL1Ac and IMPα1 DUOLINK Digital images were analysed using ImageJ software (ImageJ, NIH, Bethesda, MD, USA) and graphs represent the mean DOT Fluorescent Intensity in the nucleus or the cytoplasm compartments with significant differences calculated as per one-way ANOVA comparison. […] PDL1-unmodified and IMPα1 DUOLINK digital images were analysed using ImageJ software (ImageJ, NIH, Bethesda, MD, USA) and graphs represent the mean DOT fluorescent intensity in the nucleus or the cytoplasm compartments with significant differences calculated as per one-way ANOVA comparison. […]

[3] = target: T3, complex of PDL1 (unmodified) and IMPα1 (Homo sapiens, UniProt P52292); assay: DUOLINK proximity assay PDL1 (unmodified) and IMPα1, MDA-MB-231; conditions: for complex of PDL1 (unmodified) and IMPα1 (DUOLINK): MDA-MB-231
T3 construct: endogenous in cells; host or cells: MDA-MB-231
Description: as §2
(A) CT26, 4T1 or MDA-MB-231 Cells were treated with inhibitors for 72 hours. Following inhibition, media was removed and replaced with WST-1 cell proliferation reagent. Absorbance was recorded at 450 nm after 1 hour. Data represent a single independent experiment performed in triplicate. Results are graphed as mean +/− standard error (SE). B) MDA-MB-231 or CT26 cancer cells were treated with vehicle control, DL-2-Batch 1 (original stock), DL-2-Batch 2 (current stock), DL-2-TBAB or linear PDL1. Cells were permeabilised and were probed with the DUOLINK ligation assay. Cover slips were mounted on glass microscope slides with ProLong nucblue glass Antifade reagent (Life Technologies). PDL1Ac and IMPα1 DUOLINK Digital images were analysed using ImageJ software (ImageJ, NIH, Bethesda, MD, USA) and graphs represent the mean DOT Fluorescent Intensity in the nucleus or the cytoplasm compartments with significant differences calculated as per one-way ANOVA comparison. […] PDL1-unmodified and IMPα1 DUOLINK digital images were analysed using ImageJ software (ImageJ, NIH, Bethesda, MD, USA) and graphs represent the mean DOT fluorescent intensity in the nucleus or the cytoplasm compartments with significant differences calculated as per one-way ANOVA comparison.
MDA-MB-231 and CT26 cells were treated with vehicle control, DL-2-Batch 1, DL-2-Batch 2, DL-2-TBAB (TBAB scaffold), DL-2-D (D-Isomer) or linear PDL1. […] PDL1 (unmodified) and IMPα1 and PDL1-PTM1 and IMPα1 DUOLINK digital images were analysed using ImageJ software (ImageJ, NIH, Bethesda, MD, USA) and graphs represent the mean DOT Fluorescent Intensity in the nucleus or the cytoplasm compartments with significant differences calculated as per One-Way ANOVA comparison. […]
MDA-MB-231 cells were treated with vehicle control (hollow nanoparticle), DL-2-NP at a concentration of 10 nM to 0.3 nM. […] PDL1 (unmodified) & IMPα1 DUOLINK digital images were analysed using ImageJ software (ImageJ, NIH, Bethesda, MD, USA) and graphs represent the mean DOT Fluorescent Intensity in the nucleus or the cytoplasm compartments with significant differences calculated as per One-WayANOVA comparison.

[4] = target: T4, complex of PDL1-PTM1 and IMPα1 (Homo sapiens, UniProt P52292); assay: DUOLINK proximity assay PDL1-PTM1 (PDL1-Ac) and IMPα1, MDA-MB-231; conditions: for complex of PDL1-PTM1 and IMPα1 (DUOLINK): MDA-MB-231
T4 construct: endogenous in cells; host or cells: MDA-MB-231
Description: MDA-MB-231 cells were treated with DL-2; with concentrations ranging from 10 μM to 0.00975 μM. MDA-MB-231 cells were treated with DL-2 or Control and were permeabilized and were probed with the DUOLINK ligation assay. Cover slips were mounted on glass microscope slides with Prolong nucleus glass Antifade reagent (Life Technologies). PDL1-Ac and IMPα1 DUOLINK Digital images were analyzed using ImageJ software (ImageJ, NIH, Bethesda, MD, USA) and graphs represent the mean DOT Fluorescent Intensity in the nucleus or the cytoplasm compartments with significant differences calculated as per Kruskal-Wallis one-way ANOVA.
MDA-MB-231 of were treated with vehicle control, DL-2-Batch 1, DL-2-Batch 2, or linear PDL1 peptide. Cells were permeabilised and were probed with the DUOLINK ligation assay. Cover slips were mounted on glass microscope slides with Prolong nucleus glass Antifade reagent (Life Technologies). PDL1Ac and IMPα1 DUOLINK Digital images were analysed using ImageJ software (ImageJ, NIH, Bethesda, MD, USA) and graphs represent the mean DOT Fluorescent Intensity in the nucleus or the cytoplasm compartments with significant differences calculated as per One-Way ANOVA comparison.
as §1, with “B) MDA-MB-231 or CT26 cancer cells were treated with vehicle control, DL-2-Batch 1 (original stock), DL-2-Batch 2 (current stock), DL-2-TBAB or linear PDL1. Cells were permeabilised and were probed with the DUOLINK ligation assay. Cover slips were mounted on glass microscope slides with ProLong nucblue glass Antifade reagent (Life Technologies).” left out

Row | Compound | complex of PDL1-PTM1 and IMPα1 (DUOLINK) [1] | complex of PDL1 (unmodified) and IMPα1 (DUOLINK) [2] | complex of PDL1 (unmodified) and IMPα1 (DUOLINK) [3] | IC50 ([3]; MDA-MB-231, DUOLINK, read-out: IC50 for abrogating the PDL1 and IMPα1 complex) [nM] | complex of PDL1-PTM1 and IMPα1 (DUOLINK) [4] | IC50 ([4]; MDA-MB-231, 10 μM to 0.00975 μM) [nM] | complex of PDL1 (unmodified) and IMPα1 (DUOLINK) ([3]; listed as linear PDL1 peptide)
1 | CCCCCCCCCCCCCC(=O)NC(C)C(=O)NC1CSCc2cc3cc(c2)CSC[C@H](NC(=O)[C@H](Cc2ccccc2)NC(=O)[C@H](C(C)CC)NC(=O)[C@H](Cc2ccccc2)NC(=O)[C@H]([C@@H](C)O)NC(=O)C(CC(C)C)NC1=O)C(=O)N[C@@H](CCCNC(C)=N)C(=O)N[C@@H](CC(C)C)C(=O)N[C@@H](CCCNC(=N)N)C(=O)N[C@@H](CCCCN)C(=O)NCC(=O)N[C@@H](CCCNC(=N)N)C(=O)NC(C(=O)N[C@@H](CCSC)C(=O)NC(CCSC)C(=O)N[C@@H](CC(=O)O)C(=O)NC(C(=O)N[C@@H](CCCCN)C(=O)NC(CCCCN)C(=O)O)C(C)C)CSC3 (mixture of isomers) [DL-2] | able to successfully abrogate the complex | able to abrogate the complex | able to abrogate the complex | 39 | abrogate the complex of PDL1 and IMPα1 in a dose dependent manner; also recorded: able to abrogate the complex | 39 | –
2 | LTFIFRLRKGRMMDVKK (Myristyl-LTFIFRLRKGRMMDVKK) [PDL1-L1, Myristyl- linear peptide, prototype] | no change | unable to significantly impact the complex; also recorded: no change | unable to significantly impact the complex; also recorded: no change | – | unable to significantly prevent the complex; also recorded: no change | – | unable to significantly inhibit this complex

Source: US20240117005A1, “NOVEL BICYCLIC PEPTIDES” (THE COUNCIL OF THE QUEENSLAND INSTITUTE OF MEDICAL RESEARCH, priority 2021, published 2024)
